The values below come from ChEMBL document CHEMBL4382249, “1-Arylsulfonyl indoline-benzamides as a new antitubulin agents, with inhibition of histone deacetylase” (Eur J Med Chem, 2019).

The nature of series [1]: Growth inhibition of human KB-S15 cells after 48 hrs by SRB assay. The class given is functional. To be noted: KB-S15, 48 h. In general terms: In SRB staining, fixed cells bind dye roughly in proportion to their protein.
Series [2] in a line: Toxicity in nude Balb/c mouse xenografted with human A549 cells assessed as change in body weight at 50 mg/kg, ip daily measured up to 18 days. Type of series: organism-based. To be noted: in vivo, 432 h. A general note: In xenograft studies the graft and the host belong to different species.
The nature of series [3]: Toxicity in NOD/SCID mouse xenografted with human BJAB cells assessed as change in body weight at 50 mg/kg, iv daily for 5 days/week measured on day 25 post first dose. Type of series: organism-based. To be noted: in vivo, 120 h.
The target of the next series is Tubulin (Bos taurus) (UniProt Q6B856+Q862L2+Q862F3). To be noted: at 1 µM.
Another series concerns the target T1, Histone deacetylase 8 (Homo sapiens, UniProt Q9BY41).
T1 sequence (Q9BY41 whole entry): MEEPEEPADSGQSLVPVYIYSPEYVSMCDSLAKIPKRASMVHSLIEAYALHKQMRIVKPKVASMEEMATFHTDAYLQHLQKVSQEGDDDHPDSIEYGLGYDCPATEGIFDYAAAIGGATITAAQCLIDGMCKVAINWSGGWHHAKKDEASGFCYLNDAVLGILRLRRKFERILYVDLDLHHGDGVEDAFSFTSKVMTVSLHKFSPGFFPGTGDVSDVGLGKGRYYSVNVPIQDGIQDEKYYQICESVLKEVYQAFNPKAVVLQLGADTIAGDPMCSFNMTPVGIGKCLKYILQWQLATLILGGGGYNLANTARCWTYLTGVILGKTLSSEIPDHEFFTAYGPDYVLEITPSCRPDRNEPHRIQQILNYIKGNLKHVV

For series [4], the system named is BJAB. Put plainly: Growth inhibition of human BJAB cells after 48 hrs by MTT assay. A general note: Tetrazolium dyes change colour on reduction, which living cells bring about.
Another series concerns the target Histone deacetylase 4 (Homo sapiens, UniProt P56524). Nature of the series: Inhibition of human HDAC4 using fluorogenic p53-derived peptide RHKK(Ac) as substrate by fluorescence assay.
A further series addresses T2, Histone deacetylase 7 (Homo sapiens, UniProt Q8WUI4).
T2 sequence (Q8WUI4 whole entry): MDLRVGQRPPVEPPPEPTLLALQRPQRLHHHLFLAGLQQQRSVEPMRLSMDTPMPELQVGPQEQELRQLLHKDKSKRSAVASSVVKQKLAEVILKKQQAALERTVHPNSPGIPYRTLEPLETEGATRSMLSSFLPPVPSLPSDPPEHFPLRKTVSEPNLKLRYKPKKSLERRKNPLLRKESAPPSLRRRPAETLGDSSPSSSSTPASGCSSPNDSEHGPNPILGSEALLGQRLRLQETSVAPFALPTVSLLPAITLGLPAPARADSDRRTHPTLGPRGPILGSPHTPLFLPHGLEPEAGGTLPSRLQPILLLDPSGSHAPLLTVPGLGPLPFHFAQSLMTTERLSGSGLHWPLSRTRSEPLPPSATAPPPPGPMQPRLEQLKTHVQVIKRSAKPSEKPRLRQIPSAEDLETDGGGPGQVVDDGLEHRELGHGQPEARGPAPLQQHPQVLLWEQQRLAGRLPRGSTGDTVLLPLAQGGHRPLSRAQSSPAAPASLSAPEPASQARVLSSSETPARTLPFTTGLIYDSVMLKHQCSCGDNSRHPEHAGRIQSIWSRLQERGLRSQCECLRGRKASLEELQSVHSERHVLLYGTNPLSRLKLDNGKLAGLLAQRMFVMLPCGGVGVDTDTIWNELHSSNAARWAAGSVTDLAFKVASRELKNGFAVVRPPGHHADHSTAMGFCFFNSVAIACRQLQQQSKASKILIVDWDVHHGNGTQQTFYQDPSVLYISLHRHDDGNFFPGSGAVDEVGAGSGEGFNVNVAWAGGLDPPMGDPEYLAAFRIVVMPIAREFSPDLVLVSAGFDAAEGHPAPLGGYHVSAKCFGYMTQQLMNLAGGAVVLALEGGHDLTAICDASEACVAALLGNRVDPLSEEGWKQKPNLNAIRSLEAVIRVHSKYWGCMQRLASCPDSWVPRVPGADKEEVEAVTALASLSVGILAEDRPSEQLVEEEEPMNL
Put plainly: Inhibition of human HDAC7 using fluorogenic p53 (379-382) peptide RHKK(Ac) as substrate by fluorescence assay.

Series [5] deals with BJAB. Nature of the series: Growth inhibition of human BJAB cells assessed as cell viability at 10 nM after 48 hrs by MTT assay (reference value: 100%).
The test system of series [6] is BJAB. Put plainly: Growth inhibition of human BJAB cells assessed as cell viability at 40 nM after 48 hrs by MTT assay (reference value: 100%).
Series [7] relates to BJAB. Put plainly: Growth inhibition of human BJAB cells assessed as cell viability at 80 nM after 48 hrs by MTT assay (reference value: 100%).

Chain of Histone deacetylase 4 (P56524 whole entry): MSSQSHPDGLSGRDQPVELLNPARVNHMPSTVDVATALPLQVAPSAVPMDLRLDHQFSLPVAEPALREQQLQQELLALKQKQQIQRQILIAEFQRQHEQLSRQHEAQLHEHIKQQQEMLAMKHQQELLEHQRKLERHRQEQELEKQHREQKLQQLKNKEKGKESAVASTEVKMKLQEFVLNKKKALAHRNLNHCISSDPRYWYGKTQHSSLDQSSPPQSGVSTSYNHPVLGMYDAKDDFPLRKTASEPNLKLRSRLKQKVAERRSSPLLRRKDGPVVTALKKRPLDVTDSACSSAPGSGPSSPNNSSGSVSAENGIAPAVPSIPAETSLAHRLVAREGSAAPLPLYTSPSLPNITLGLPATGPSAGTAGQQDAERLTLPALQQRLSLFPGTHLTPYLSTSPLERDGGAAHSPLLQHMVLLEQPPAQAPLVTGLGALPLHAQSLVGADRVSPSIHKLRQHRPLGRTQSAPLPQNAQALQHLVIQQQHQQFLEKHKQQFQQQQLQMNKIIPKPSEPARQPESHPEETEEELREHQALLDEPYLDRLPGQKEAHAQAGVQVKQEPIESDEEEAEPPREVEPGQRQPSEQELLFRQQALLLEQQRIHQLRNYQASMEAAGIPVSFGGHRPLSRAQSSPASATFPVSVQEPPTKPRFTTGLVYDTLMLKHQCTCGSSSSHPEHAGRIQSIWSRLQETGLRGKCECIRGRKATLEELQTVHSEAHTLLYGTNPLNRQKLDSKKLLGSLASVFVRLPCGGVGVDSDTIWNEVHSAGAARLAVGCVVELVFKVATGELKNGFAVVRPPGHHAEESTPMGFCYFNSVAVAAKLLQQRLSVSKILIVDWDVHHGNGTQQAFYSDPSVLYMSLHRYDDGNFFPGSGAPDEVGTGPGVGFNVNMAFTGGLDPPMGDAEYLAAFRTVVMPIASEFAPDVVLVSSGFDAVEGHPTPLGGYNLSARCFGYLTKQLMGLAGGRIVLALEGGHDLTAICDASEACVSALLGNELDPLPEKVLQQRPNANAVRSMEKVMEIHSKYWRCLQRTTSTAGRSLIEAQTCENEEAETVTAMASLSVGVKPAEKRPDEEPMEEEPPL

For the compound `COc1ccc(S(=O)(=O)N2CCc3cccc(NCc4ccc(C(=O)Nc5ccccc5N)cc4)c32)cc1`, the IC50 (commonly the concentration at which inhibition is half-maximal) was 43.9 nM in [1]; “Not Active” at Histone deacetylase 8; 40 nM in the series with BJAB [4]; “Not Active” at Histone deacetylase 4; “Not Active” at Histone deacetylase 7. Besides, the Activity entry in [2] and in [3] was “Non-Toxic” in each case. In addition, the inhibition (usually the drop in the measured response relative to a control, in per cent) on Tubulin (Bos taurus) amounted to 69.9%. The viability (in general, the share of living cells, or the viability signal relative to a control) at 0.01 µM in the series on BJAB [5] was determined as 69%. Moreover, the viability at 0.04 µM in the series with BJAB [6] was 50%. Besides, the viability at 0.08 µM in the series with BJAB [7] is 22%.
